Measured values as given in the NIST ThermoML archive (doi:10.1016/j.jct.2013.08.016).
Numbers after ± are expanded uncertainties.

Columns and labels:
[1] = 101.3 kPa, Liquid, Capillary tube (Ostwald / Ubbelohde) method
[2] = refractive index (Na D-line) (dimensionless); details: 101.33 kPa, Liquid, Standard Abbe refractometry
[3] = mn = molality of the nth substance listed, in mol/kg; details: 101.3 kPa, Liquid, m2 = 0; for viscosity: Capillary tube (Ostwald / Ubbelohde) method; for mass density: Pycnometric method; for speed of sound: Single path-length method
[4] = refractive index (Na D-line) (dimensionless); mn = molality of the nth substance listed, in mol/kg; details: 101.3 kPa, Liquid, Standard Abbe refractometry, m2 = 0

| viscosity ([1]; 278.15 K) [mPa·s] | viscosity ([1]; 288.15 K) [mPa·s] | viscosity ([1]; 298.15 K) [mPa·s] | refractive index ([2]; 278.15 K) | refractive index ([2]; 288.15 K) | refractive index ([2]; 298.15 K) | viscosity ([3]; 278.15 K) [mPa·s] | mass density ([3]; 278.15 K) [kg/m3] | speed of sound ([3]; 278.15 K) [m/s] | viscosity ([3]; 288.15 K) [mPa·s] | viscosity ([3]; 298.15 K) [mPa·s] | refractive index ([4]; 278.15 K) | refractive index ([4]; 288.15 K) | refractive index ([4]; 298.15 K) | Compound |
| --- | --- | --- | --- | --- | --- | --- | --- | --- | --- | --- | --- | --- | --- | --- |
| 1.519 ± 0.032 | 1.138 ± 0.025 | 0.8903 ± 0.019 | 1.3339 ± 0.0005 | 1.3334 ± 0.0005 | 1.3325 ± 0.0005 | – | – | – | – | – | – | – | – | O [water] |
| – | – | – | – | – | – | 1.519 ± 0.032 | 999.96 ± 0.38 | 1426.2 ± 2.2 | 1.138 ± 0.025 | 0.8903 ± 0.019 | 1.3339 ± 0.0005 | 1.3334 ± 0.0005 | 1.3325 ± 0.0005 | O [water] + O=C1O[C@H]([C@@H](O)CO)C([O-])=C1O.[Na+] |
| – | – | – | – | – | – | 1.519 ± 0.032 | 999.96 ± 0.37 | 1426.2 ± 2.2 | 1.138 ± 0.025 | 0.8903 ± 0.019 | 1.3339 ± 0.0005 | 1.3334 ± 0.0005 | 1.3325 ± 0.0005 | O [water] + O=C1O[C@H]([C@@H](O)CO)C(O)=C1O |
